According to patent US20040127395A1 (priority 2002, published 2004):
Blank lines part the entries; values can stand above or below the compound they belong to.

Assays:
[1] = target: human histamine H4 receptor (Homo sapiens, UniProt Q9H3N8); test: biochemical
[2] = tested on: mouse bone marrow-derived mast cells; test: Histamine-induced mast cell chemotaxis in vitro (transwell); type: cell-based; settings: for inhibition at 1 µM / inhibition at 10 µM: Mus musculus, Mast cell
Experimental: Mast cells were differentiated from bone marrow derived from BALB/c or C57bl/6j mice. Mice were sacrificed by asphyxiation under 95% CO2 and femurs were removed. Bone marrow was aseptically isolated from the femurs. The cells (5×10^5/mL) were cultured at 37° C. with 5% CO2 in culture medium consisting of RPMI with 10% FCS, 0.1 mM non-essential amino acids, 50 μg/mL penicillin/streptomycin and 20% conditioned WEHI-3 medium. Conditioned WEHI-3 medium was prepared from WEHI-3 cells (ATCC), which were cultured in Iscoves Dulbeccos medium with 10% FCS, 4 mM L-glutamine, 1.5 g/L sodium carbonate, 0.05 μM beta-mercaptoethanol and 50 μg/mL penicillin/streptomycin. The filtered supernatant was used as the conditioned WEHI-3 medium. After 16 h in culture, the bone marrow cells were transferred to a new flask. The medium was refreshed once per week. After four weeks, the cells were tested by flow cytometry for IgE receptor and CD117 (c-kit) expression. Mast cells were incubated with anti-DNP IgE (ICN Pharmaceuticals, Costa Mesa, Calif.) or vehicle for 30 min, followed by FITC labeled anti-IgE (Pharmingen) or FITC labeled CD117 (Pharmingen) for 30 min on ice. The cultured mast cells consisted of a homogeneous population which was >99% IgE receptor positive and >99% CD117 positive. Mast cells of four to eight weeks culture time were used for experiments.
Transwells (Costar, Cambridge, Mass.) of a pore size of […] were coated with 100 μL of 100 ng/mL human fibronectin (Sigma) for 2 h at room temperature. […] Mast cells (2×10^5/well) were added to the top chamber. The plates were incubated for 3 h at 37° C. Transwells were removed and the number of cells in the bottom chamber was counted for 60 sec using a flow cytometer.

human eosinophils = test: Histamine-induced eosinophil shape change (GAFS); type: cell-based; settings: for effect on histamine-induced eosinophil shape change / Fold Change: antagonist 10 μM; for Fold Change: eosinophil shape change
Experimental: Human granulocytes were isolated from human blood by a Ficoll gradient. The red blood cells were lysed with 5-10× Qiagen lysis buffer at room temperature for 5-7 min. Granulocytes were harvested and washed once with FACS buffer. The cells were resuspended at a density of 2×10^6 cells/mL in reaction buffer. […] Ten minutes later, the cells were transferred to ice and fixed with 250 μL of ice-cold fixative buffer (2% formaldehyde) for 1 min.

[3] = tested on: mast cells in the mouse trachea; test: Histamine-induced accumulation of mast cells in the mouse trachea in vivo; settings: 0.1 M histamine aerosol, 20 min on 2 consecutive days

Ki [1]: 19 nM
SMILES: CN1CCN(C(=O)c2cc3cc(O)ccc3[nH]2)CC1 [(5-Hydroxy-1H-indol-2-yl)-(4-methyl-piperazin-1-yl)-methanone]

Ki [1]: 10 nM
SMILES: CN1CCN(C(=O)c2cc3cc(Cl)cc(Cl)c3[nH]2)CC1 [(5,7-Dichloro-1H-indol-2-yl)-(4-methyl-piperazin-1-yl)-methanone]

Ki [1]: 10 nM
SMILES: O=C(c1cc2cc(Cl)ccc2[nH]1)N1CCNCC1 [(5-Chloro-1H-indol-2-yl)-piperazin-1-yl-methanone]
inhibition at 1 µM [2]: 99%

Ki [1]: 18 nM
SMILES: CN1CCN(C(=O)c2cc3cc(F)ccc3[nH]2)CC1 [(5-Fluoro-1H-indol-2-yl)-(4-methyl-piperazin-1-yl)-methanone]

Ki [1]: 1 nM
SMILES: Cc1cc(Cl)cc2cc(C(=O)N3CCN(C)CC3)[nH]c12 [(5-Chloro-7-methyl-1H-indol-2-yl)-(4-methyl-piperazin-1-yl)-methanone]
inhibition at 1 µM [2]: 100%
inhibition at 10 µM [2]: 97%

Ki [1]: 55 nM
SMILES: CN1CCN(C(=O)c2cc3cccc(Br)c3[nH]2)CC1 [(7-Bromo-1H-indol-2-yl)-(4-methyl-piperazin-1-yl)-methanone]

Ki [1]: 188 nM
SMILES: CN1CCN(C(=O)c2cc3ccc(Br)cc3[nH]2)CC1 [(6-Bromo-1H-indol-2-yl)-(4-methyl-piperazin-1-yl)-methanone]

Ki [1]: 32.5 nM
SMILES: CN1CCN(C(=O)c2cc3ccc(O)cc3[nH]2)CC1 [(6-Hydroxy-1H-indol-2-yl)-(4-methyl-piperazin-1-yl)-methanone]

Ki [1]: 23 nM
SMILES: CN1CCN(C(=O)c2cc3cccc(Cl)c3[nH]2)CC1 [(7-Chloro-1H-indol-2-yl)-(4-methyl-piperazin-1-yl)-methanone]

Ki [1]: 27 nM
SMILES: CC1CN(C(=O)c2cc3cc(Cl)ccc3[nH]2)CCN1C (centres unmarked) [(5-Chloro-1H-indol-2-yl)-(3,4-dimethyl-piperazin-1-yl)-methanone]

Ki [1]: 7 nM
SMILES: CN1CCN(C(=O)c2cc3cccc(N)c3[nH]2)CC1 [(7-Amino-1H-indol-2-yl)-(4-methyl-piperazin-1-yl)-methanone]
inhibition at 1 µM [2]: 99%

Ki [1]: 145 nM
SMILES: COc1cccc(-c2ccc3[nH]c(C(=O)N4CCN(C)CC4)cc3c2)c1 [[5-(3-Methoxy-phenyl)-1H-indol-2-yl]-(4-methyl-piperazin-1-yl)-methanone]

Ki [1]: 19 nM
SMILES: CN1CCN(C(=O)c2cc3cc(F)cc(F)c3[nH]2)CC1 [(5,7-Difluoro-1H-indol-2-yl)-(4-methyl-piperazin-1-yl)-methanone]
inhibition at 1 µM [2]: 100%

Ki [1]: 47 nM
SMILES: CN1CCN(C(=O)c2cc3cccc(O)c3[nH]2)CC1 [(7-Hydroxy-1H-indol-2-yl)-(4-methyl-piperazin-1-yl)-methanone]

Ki [1]: 124 nM
SMILES: CN1CCN(C(=O)c2cc3ccc(Cl)cc3[nH]2)CC1 [(6-Chloro-1H-indol-2-yl)-(4-methyl-piperazin-1-yl)-methanone]

Ki [1]: 11 nM
SMILES: CN1CCN(C(=O)c2cc3c(Cl)c(Cl)ccc3[nH]2)CC1 [(4,5-Dichloro-1H-indol-2-yl)-(4-methyl-piperazin-1-yl)-methanone]

Ki [1]: 11 nM
SMILES: Cc1ccc2[nH]c(C(=O)N3CCN(C)CC3)cc2c1 [(5-Methyl-1H-indol-2-yl)-(4-methyl-piperazin-1-yl)-methanone]

Ki [1]: 46 nM
SMILES: CN1CCN(C(=O)c2cc3cc([N+](=O)[O-])ccc3[nH]2)CC1 [(4-Methyl-piperazin-1-yl)-(5-nitro-1H-indol-2-yl)-methanone]

Ki [1]: 25 nM
SMILES: O=C(c1cc2cc(Cl)ccc2[nH]1)N1CCN(CCO)CC1 [(5-Chloro-1H-indol-2-yl)-[4-(2-hydroxy-ethyl)-piperazin-1-yl]-methanone]

Ki [1]: 40 nM
SMILES: CN1CCN(C(=O)c2cc3c(Br)cccc3[nH]2)CC1 [(4-Bromo-1H-indol-2-yl)-(4-methyl-piperazin-1-yl)-methanone]

Ki [1]: 30 nM
SMILES: Cc1cc(C)c2[nH]c(C(=O)N3CCN(C)CC3)cc2c1 [(5,7-Dimethyl-1H-indol-2-yl)-(4-methyl-piperazin-1-yl)-methanone]

Ki [1]: 6.6 nM
SMILES: Cc1cccc2cc(C(=O)N3CCN(C)CC3)[nH]c12 [(7-Methyl-1H-indol-2-yl)-(4-methyl-piperazin-1-yl)-methanone]

Ki [1]: 132 nM
SMILES: CN1CCN(C(=S)c2cc3ccccc3[nH]2)CC1 [(1H-Indol-2-yl)-(4-methyl-piperazin-1-yl)-methanethione]

Further lines, the compound ahead of its results:

SMILES: C[C@@H]1CN(C(=O)c2cc3cc(Cl)ccc3[nH]2)CCN1 [(5-Chloro-1H-indol-2-yl)-((R)-3-methyl-piperazin-1-yl)-methanone]
Ki [1]: 34 nM

SMILES: CN(C)CCOC(c1ccccc1)c1ccccc1 [diphenhydramine]
effect on histamine-induced eosinophil shape change (human eosinophils): did not alter

SMILES: CN1CCN(C(=O)c2cc3cc(Br)ccc3o2)CC1 [(5-Bromo-benzofuran-2-yl)-(4-methyl-piperazin-1-yl)-methanone]
Ki [1]: 95 nM

SMILES: Cc1csc2cc(C(=O)N3CCN(C)CC3)[nH]c12 [(4-Methyl-piperazin-1-yl)-(3-methyl-4H-thieno[3,2-b]pyrrol-5-yl)-methanone]
inhibition at 1 µM [2]: 60%

SMILES: CC1CN(C(=O)c2cc3ccccc3[nH]2)CCN1 (centres unmarked) [(1H-Indol-2-yl)-(3-methyl-piperazin-1-yl)-methanone]
Ki [1]: 100 nM

SMILES: S=C(NC1CCCCC1)N1CCC(c2cnc[nH]2)CC1 [Thioperamide]
IC50 (human eosinophils; Eosinophil, human eosinophils, read-out: IC50 for inhibition of histamine-induced eosinophil shape change): 1500 nM

SMILES: Nc1cccc2cc(C(=O)N3CCNCC3)[nH]c12 [(7-Amino-1H-indol-2-yl)-piperazin-1-yl-methanone]
Ki [1]: 43 nM

SMILES: CC1CN(C(=O)c2cc3cc(Cl)ccc3[nH]2)CCN1 (centres unmarked) [(5-Chloro-1H-indol-2-yl)-(3-methyl-piperazin-1-yl)-methanone]
Ki [1]: 41 nM

SMILES: NCCc1c[nH]cn1 [Histamine, reference compound]
migrated mast cells in the lower chamber ([2]; histamine in lower chamber (1.25-20 μM), FIG. 1): dose-dependent increase in migrated mast cells
shape change in eosinophils (human eosinophils; histamine as stimulus): induces a dose-dependent shape change
migration of mast cells in the trachea [3]: induces a migration of mast cells into the sub-epithelial space

SMILES: Cc1ccc2[nH]c(C(=O)NC3CC4CCC(C3)N4C)nc2c1 (centres unmarked) [5-Methyl-1H-benzoimidazole-2-carboxylic acid(8-methyl-8-aza-bicyclo[3.2.1]oct-3-yl)-amide]
inhibition at 1 µM [2]: 66%
inhibition at 10 µM [2]: 27%

SMILES: O=C(c1cc2cc(Cl)sc2[nH]1)N1CCN2CCCC2C1 (centres unmarked) [(2-Chloro-6H-thieno[2,3-b]pyrrol-5-yl)-(hexahydro-pyrrolo[1,2-a]pyrazin-2-yl)-methanone]
inhibition at 1 µM [2]: 0%
inhibition at 10 µM [2]: 0%

SMILES: CN1CCN(C(=O)c2cc3sc(Cl)cc3[nH]2)CC1 [(2-Chloro-4H-thieno[3,2-b]pyrrol-5-yl)-(4-methyl-piperazin-1-yl)-methanone]
inhibition at 1 µM [2]: 92%

SMILES: CNC(=C[N+](=O)[O-])NCCSCc1ccc(CN(C)C)o1 [ranatidine]
effect on histamine-induced eosinophil shape change (human eosinophils): did not alter
Fold Change (human eosinophils; histamine 0 μM): 1.00
Fold Change (human eosinophils; histamine 0.01 μM): 1.04
Fold Change (human eosinophils; histamine 0.1 μM): 1.21
Fold Change (human eosinophils; histamine 1 μM): 1.49
Fold Change (human eosinophils; histamine 10 μM): 1.64

SMILES: CN1CCN(C(=O)c2nc3cc(F)c(F)cc3[nH]2)CC1 [(5,6-Difluoro-1H-benzoimidazol-2-yl)-(4-methyl-piperazin-1-yl)-methanone]
inhibition at 1 µM [2]: 72%
inhibition at 10 µM [2]: 97%

SMILES: C[C@H]1CN(C(=O)c2cc3cc(Cl)ccc3[nH]2)CCN1 [(5-Chloro-1H-indol-2-yl)-((S)-3-methyl-piperazin-1-yl)-methanone]
Ki [1]: 36 nM

SMILES: CC1CN(C(=O)c2cc3scc(Br)c3[nH]2)CCN1 (centres unmarked) [(3-Bromo-4H-thieno[3,2-b]pyrrol-5-yl)-(3-methyl-piperazin-1-yl)-methanone]
inhibition at 1 µM [2]: 0%
inhibition at 10 µM [2]: 0%

SMILES: O=C(c1nc2cc(Cl)ccc2[nH]1)N1CCNCC1 [(5-Chloro-1H-benzoimidazol-2-yl)-piperazin-1-yl-methanone]
inhibition at 1 µM [2]: 8%
inhibition at 10 µM [2]: 101%

SMILES: CN1CCN(C(=O)c2cc3cc(Cl)sc3[nH]2)CC1 [(2-Chloro-6H-thieno[2,3-b]pyrrol-5-yl)-(4-methyl-piperazin-1-yl)-methanone]
inhibition at 1 µM [2]: 103%
inhibition at 10 µM [2]: 106%
